In ChEMBL document CHEMBL3217493, “Approaches to discover non-ATP site kinase inhibitors” (Medchemcomm, 2013) one finds Kd data, which are given here for 1 compound.

For this test, the target named is Mitogen-activated protein kinase 1 (Homo sapiens, UniProt P28482). As to the kind of experiment: Binding affinity to ERK2 (unknown origin).

SMILES strings stand for the structures.

Sequence of Mitogen-activated protein kinase 1 (P28482 whole entry): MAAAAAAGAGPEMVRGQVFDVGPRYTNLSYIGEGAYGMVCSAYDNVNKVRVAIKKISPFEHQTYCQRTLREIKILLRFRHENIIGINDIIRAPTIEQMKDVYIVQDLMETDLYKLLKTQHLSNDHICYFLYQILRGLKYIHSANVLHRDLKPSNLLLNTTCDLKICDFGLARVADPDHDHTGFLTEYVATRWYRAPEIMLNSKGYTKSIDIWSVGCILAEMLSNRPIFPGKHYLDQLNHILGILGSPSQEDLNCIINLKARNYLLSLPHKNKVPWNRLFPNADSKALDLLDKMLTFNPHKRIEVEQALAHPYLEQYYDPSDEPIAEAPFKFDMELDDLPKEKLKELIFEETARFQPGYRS

`COc1ccc(/C=C2\SC(=O)N(CCN)C2=O)cc1`: the Kd is 5 µM.

Broadly, the Kd is the concentration at which binding is half-saturated. Lower therefore signals higher affinity.
